Literature values, collected in patent publication US20240390265A1, “FORMULATIONS FOR TRANSDERMAL ADMINISTRATION OF ACTIVE AGENTS” (DYVE BIOSCIENCES, INC., priority 2022, published 2024).
Values belong to the compound of their own block, whether it stands above or below them.

Legend:
BRAF [1] = target: T1, BRAF (Homo sapiens, UniProt P15056); settings: read-out: IC50 (B-Raf inhibitor)
Target sequence in this assay (P15056 2-766 limits assumed): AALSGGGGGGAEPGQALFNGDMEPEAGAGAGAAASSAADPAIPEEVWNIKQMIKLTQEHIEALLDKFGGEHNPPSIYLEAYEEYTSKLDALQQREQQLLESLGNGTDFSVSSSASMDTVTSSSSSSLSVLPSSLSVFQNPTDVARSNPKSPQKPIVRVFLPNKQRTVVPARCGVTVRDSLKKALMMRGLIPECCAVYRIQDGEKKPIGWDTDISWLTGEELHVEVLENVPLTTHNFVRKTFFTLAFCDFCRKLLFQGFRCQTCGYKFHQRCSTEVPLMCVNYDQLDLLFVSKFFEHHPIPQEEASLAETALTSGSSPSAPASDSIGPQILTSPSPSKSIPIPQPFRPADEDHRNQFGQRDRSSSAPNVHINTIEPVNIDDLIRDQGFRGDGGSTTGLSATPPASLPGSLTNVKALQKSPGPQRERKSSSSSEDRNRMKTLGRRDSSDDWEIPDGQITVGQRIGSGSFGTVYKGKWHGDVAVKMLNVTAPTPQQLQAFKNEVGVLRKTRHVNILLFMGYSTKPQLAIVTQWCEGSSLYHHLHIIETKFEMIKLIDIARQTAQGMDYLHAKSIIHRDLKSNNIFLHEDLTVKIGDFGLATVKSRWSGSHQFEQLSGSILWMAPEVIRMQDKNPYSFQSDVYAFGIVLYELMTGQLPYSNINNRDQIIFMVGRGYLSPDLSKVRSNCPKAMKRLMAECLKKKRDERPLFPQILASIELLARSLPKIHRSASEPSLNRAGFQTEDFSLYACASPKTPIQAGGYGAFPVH

[2] = system: KRAS G12D mutant tumor cells
[3] = system: tumor models harboring KRAS G12D mutations
BRAF [4] = target: T1, BRAF
Target sequence in this assay (P15056 whole entry): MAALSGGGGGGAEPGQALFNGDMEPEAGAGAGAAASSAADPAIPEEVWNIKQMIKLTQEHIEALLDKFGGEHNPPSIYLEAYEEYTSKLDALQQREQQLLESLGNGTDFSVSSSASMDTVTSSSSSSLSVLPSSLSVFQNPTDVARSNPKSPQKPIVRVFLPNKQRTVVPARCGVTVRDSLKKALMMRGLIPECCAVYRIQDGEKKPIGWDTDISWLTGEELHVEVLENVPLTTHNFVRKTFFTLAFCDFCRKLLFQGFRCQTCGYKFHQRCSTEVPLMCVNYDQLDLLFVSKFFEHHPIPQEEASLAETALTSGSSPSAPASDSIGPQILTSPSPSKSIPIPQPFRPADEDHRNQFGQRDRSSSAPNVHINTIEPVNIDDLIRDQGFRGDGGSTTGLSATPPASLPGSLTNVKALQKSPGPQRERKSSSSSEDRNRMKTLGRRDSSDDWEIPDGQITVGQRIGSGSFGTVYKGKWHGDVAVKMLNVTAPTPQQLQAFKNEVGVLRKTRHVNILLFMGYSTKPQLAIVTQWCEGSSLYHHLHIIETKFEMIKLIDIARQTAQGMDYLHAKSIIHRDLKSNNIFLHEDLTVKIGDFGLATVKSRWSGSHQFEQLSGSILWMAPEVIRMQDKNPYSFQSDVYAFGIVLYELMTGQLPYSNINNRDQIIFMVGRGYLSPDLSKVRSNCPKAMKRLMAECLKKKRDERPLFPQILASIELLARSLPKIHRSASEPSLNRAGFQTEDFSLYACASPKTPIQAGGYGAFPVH

CRAF = CRAF (Homo sapiens, UniProt P04049)
Sequence of CRAF (P04049 whole entry): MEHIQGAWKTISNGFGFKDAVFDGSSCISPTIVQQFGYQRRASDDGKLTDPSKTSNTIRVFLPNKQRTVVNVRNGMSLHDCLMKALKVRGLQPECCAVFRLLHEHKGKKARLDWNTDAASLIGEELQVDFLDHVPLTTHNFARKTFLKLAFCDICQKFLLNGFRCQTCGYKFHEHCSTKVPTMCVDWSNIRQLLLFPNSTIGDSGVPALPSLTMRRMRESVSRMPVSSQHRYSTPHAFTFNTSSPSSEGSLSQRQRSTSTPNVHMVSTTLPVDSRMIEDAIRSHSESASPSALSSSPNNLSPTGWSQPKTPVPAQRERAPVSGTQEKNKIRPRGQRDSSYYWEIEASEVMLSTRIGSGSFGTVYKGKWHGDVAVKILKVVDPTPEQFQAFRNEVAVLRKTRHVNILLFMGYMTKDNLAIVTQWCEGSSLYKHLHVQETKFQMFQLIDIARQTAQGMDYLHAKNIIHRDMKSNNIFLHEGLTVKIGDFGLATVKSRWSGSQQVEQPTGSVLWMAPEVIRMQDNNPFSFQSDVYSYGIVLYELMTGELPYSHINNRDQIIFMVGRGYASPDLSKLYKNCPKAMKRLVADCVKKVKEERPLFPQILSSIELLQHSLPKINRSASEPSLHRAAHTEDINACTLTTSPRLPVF

[5] = system: panel of 456 human kinases
[6] = system: cell line and primary human tumor derived xenograft models; settings: at well-tolerated doses
[7] = in vivo

IC50 (BRAF [1]): 11.7 nM
SMILES: Cc1ccc2c(Nc3cccc(OC(F)(F)F)c3)nccc2c1Nc1ncccc1-c1ncnc2nc[nH]c12 [LUT014, 6-methyl-5-N-[3-(7H-purin-6-yl)pyridin-2-yl]-1-N-[3-(trifluoromethoxy)phenyl]isoquinoline-1,5-diamine]

SMILES: C#Cc1c(F)ccc2cc(O)cc(-c3ncc4c(N5CC6CCC(C5)N6)nc(OC[C@@]56CCCN5C[C@H](F)C6)nc4c3F)c12 [MRTX1133]
activity in cellular assays [2]: single digit nanomolar
in vivo efficacy in tumor models harboring KRAS G12D mutations [3]: marked in vivo efficacy

concentrations inhibiting BRAF kinase activity (BRAF [4]): picomolar
concentrations inhibiting CRAF kinase activity (CRAF): picomolar
oral bioavailability [7]: orally bioavailable
SMILES: Cc1ccc(NC(=O)c2ccnc(C(F)(F)F)c2)cc1-c1cc(OCCO)nc(N2CCOCC2)c1 [Naporafenib]
selectivity against a panel of 456 human kinases [5]: high degree of selectivity
effect on tumors in xenograft models [6]: tumor regression
